Patent US6143730A, “Preparation and use of sulfated oligosaccharides” (priority 1995, dated 2000)
In brackets after ≈: the same amount, converted by molar mass. Like-named read-outs stand apart in the source and are kept apart here.

What was measured:
[1] = system: thrombin time and activated partial thromboplastin time; experiment: Anticoagulant activity (thrombin time and activated partial thromboplastin time); assay type: biochemical; details: percentage of heparin activity (100%)
Experimental: The anticoagulant activity of each sulfated oligosaccharide was assessed as previously described (35), using both thrombin time and activated partial thromboplastin time procedures. The activity of each preparation was compared with a heparin control and anticoagulant activity expressed as a percentage of heparin activity.

[2] = system: human angiogenesis in vitro; experiment: Human angiogenesis assay (placental blood vessel fragments in fibrin gel); assay type: cell-based; details: for inhibition of human angiogenesis: in words
Experimental: The assay method used is described in International Patent Application No. PCT/AU95/00105, the disclosure of which is incorporated herein by reference. Blood vessels, approx 1-2 mm in diameter and 2-5 cm in length, were excised from the surface of human placentas within 6 hours of birth. The vessels were placed in Hank's BSS containing […] of fungizone and cut into 1-2 mm length fragments using fine dissecting forceps and iridectomy scissors. Vessel fragments were freed of residual clots and soaked in Hank's BSS before use. Dissecting and sectioning of vessels was performed with the aid of a magnifier lamp (Maggylamp, Newbound, Balmain, NSW, Australia). Similar angiogenic responses were obtained from blood vessels of venular and arterial origin but, for each assay, vessel fragments from only one vessel were used.
Angiogenesis assays were performed in 24 or 48 well culture plates (Costar, Cambridge, Mass.). In the 24 well format, 30 μl of bovine thrombin (50 NIH units/ml in 0.15 M NaCl; Sigma Chemical Co., St Louis, Mo.) was added to each well followed by 1.0 ml/well of 3 mg/ml bovine fibrinogen (Sigma) in Medium 199. The thrombin and fibrinogen were mixed rapidly and one vessel fragment quickly placed in the centre of the well before clot formation. Usually fibrin gel formation occurred in 30 seconds and the vessel fragment was left suspended in the gel. Following gel formation 1.0 ml/well of Medium 199 supplemented with 20% foetal calf serum (FCS), 0.2 mg ε-amino caproic acid, L-glutamine and antibiotics (gentamycin and fungazone) was added. In the 48 well format all reagent volumes were halved. Vessels were cultured at 37° C. in a humidified environment for 14-21 days with the medium being changed twice weekly. Angiogenesis was quantified by computer based image analysis, using NIH Image software, of digital images of the cultures obtained with a Dycam digital camera mounted on an inverted microscope (Olympus, Tokyo, Japan).

[3] = system: rat mammary adenocarcinoma 13762 MAT; experiment: Metastasis assay (lung metastases of 13762 MAT); assay type: in vivo; details: for Metastasis (% Control): 13762 MAT cells i.v., 2 mg/rat at time of tumour cell injection, lungs, ± SEM (n = 4)
Experimental: The antimetastatic activity of the different sulfated oligosaccharides was assessed using the highly metastatic rat mammary adenocarcinoma 13762 MAT (35). The tumour cells were maintained in vitro as previously described (35). Female Fisher 344 rats, (10-13 weeks of age) were injected i.v. with 2×10^5 13762 MAT cells in 0.6 ml RPMI 1640 medium containing 10% FCS. At the time of tumour cell injection animals were also injected with 2 mg of sulfated oligosaccharide, similar results being obtained if the oligosaccharide was injected i.v., i.p. or subcut. Lungs were removed from the rats 13 days following tumour cell injection, placed in Bouin's solution for at least 24 hours and lung metastases then assessed under a dissecting microscope. The number of lung metastases in sulfated oligosaccharide treated rats was compared with that observed in control animals, with a minimum of four animals being included in each group.

[4] = system: human angiogenesis in vitro; details: reference 42; cited from earlier work
[5] = target: T1, human platelet heparanase (Homo sapiens, UniProt Q9Y251); details: reference 42; cited from earlier work
T1 construct: from tissue; host or cells: human platelets
T1 sequence (Q9Y251 158-543 limits assumed): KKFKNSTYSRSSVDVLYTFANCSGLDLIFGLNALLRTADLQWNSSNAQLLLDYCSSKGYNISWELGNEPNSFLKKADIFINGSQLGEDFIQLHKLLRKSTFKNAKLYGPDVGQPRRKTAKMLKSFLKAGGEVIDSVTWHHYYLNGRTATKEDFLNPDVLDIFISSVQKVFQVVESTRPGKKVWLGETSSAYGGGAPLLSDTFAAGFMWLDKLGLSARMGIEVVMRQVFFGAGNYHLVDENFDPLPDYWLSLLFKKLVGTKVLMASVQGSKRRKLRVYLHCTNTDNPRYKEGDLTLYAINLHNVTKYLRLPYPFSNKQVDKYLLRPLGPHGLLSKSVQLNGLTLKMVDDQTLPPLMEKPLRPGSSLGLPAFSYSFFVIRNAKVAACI
T1 sequence (Q9Y251 36-109 limits assumed): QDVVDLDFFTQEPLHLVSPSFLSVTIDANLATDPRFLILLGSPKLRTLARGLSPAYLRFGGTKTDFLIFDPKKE

[6] = target: T1, human platelet heparanase; experiment: Heparanase inhibition assay; assay type: biochemical
Description: The heparanase assay is based on the observation that the serum protein, histidine-rich glycoprotein (HRG), binds to heparan sulfate chains and masks the heparanase cleavage site. Based on the finding that heparanase-cleaved heparan sulfate fails to bind to HRG a heparanase assay has been developed which involves digesting ^3 H-labelled heparan sulfate chains with heparanase, binding the digested heparan sulfate to HRG coupled beads and measuring unbound ^3 H label. With increasing digestion of the substrate an increasing amount of ^3 H label fails to bind to the HRG beads.
Initially, bovine intestinal heparan sulfate (Mr av 32 kDa) was partially de-N-acetylated by heating in hydrazine hydrate (36) and re-acetylated with ^3 H-acetic anhydride.
Activity was determined by the rate of production of smaller (approx 5 kDa) heparan sulfate fragments that were not bound following passage of the incubation mixture (100 μl) through HRG-Sepharose mini-columns (200 μl packed beads) which retained the larger uncleaved and partially cleaved substrate.
In heparanase-inhibition assays, different concentrations of inhibitor were added to the enzyme prior to addition of radiolabelled substrate, the inhibitor being retained in the reaction mixture throughout the incubation period.

bFGF = bFGF (Homo sapiens, UniProt P09038); experiment: Binding of BALB/c 3T3 cells (cell surface heparan sulfate) to immobilised bFGF; assay type: cell-based; details: binding of mouse 3T3 cells to immobilised bFGF
bFGF, sequence (P09038 134-288, species assumed): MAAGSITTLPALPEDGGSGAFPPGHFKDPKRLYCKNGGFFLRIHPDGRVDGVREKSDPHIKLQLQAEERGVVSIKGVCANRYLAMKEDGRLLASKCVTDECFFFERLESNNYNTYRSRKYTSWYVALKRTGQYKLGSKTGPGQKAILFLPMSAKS
Experimental: (§1) The FGF-heparan sulfate interaction was assessed, as reported earlier (39), by measuring the binding of BALB/c 3T3 fibroblasts to PVC immobilised FGFs, cell binding being detected by Rose Bengal staining of adherent cells. Sulfated oligosaccharides were examined for their ability to inhibit this cell adhesion process, which is totally dependent upon heparan sulfate structures on the surface of BALB/c 3T3 cells (39).

aFGF = aFGF (Homo sapiens, UniProt P05230); experiment: Binding of BALB/c 3T3 cells (cell surface heparan sulfate) to immobilised aFGF; assay type: cell-based; details: binding of mouse 3T3 cells to immobilised aFGF
aFGF, sequence (P05230 whole entry, species assumed): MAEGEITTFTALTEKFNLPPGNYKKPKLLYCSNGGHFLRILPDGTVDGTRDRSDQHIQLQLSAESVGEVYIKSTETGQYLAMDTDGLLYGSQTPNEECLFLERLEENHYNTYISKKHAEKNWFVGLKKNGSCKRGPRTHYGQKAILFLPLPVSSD
Experimental: as §1

air pouch inflammation = experiment: Air pouch inflammation model (thioglycollate); assay type: in vivo, mouse; details: 25 mg/kg subcut., ± SEM
Experimental: The assay is based on a previously reported procedure (40). Subcutaneous air pouches were formed on the backs of mice by injecting 5 ml of sterile air below the skin of a shaved area between the scapulae of an anaesthetised mouse on day 1. On day 3 the pouch was reinflated by the injection of 2.5 ml of air. Inflammation was induced on day 6 by injecting directly into the pouch 1.0 ml of 56 mg/ml thioglycollate or 1.0 ml of saline as a control. Approximately 17-20 hrs after thioglycollate injection the animals were killed by cervical dislocation and the cellular contents of the pouch retrieved by the injection of 2.5 ml of ice cold PBS/5% FCS. Sulfated oligosaccharides were tested for their ability to inhibit the inflammatory reaction by being injected subcut. (50 μl in PBS) in a separate site immediately following administration of the thioglycollate. Prednisolone was used as a control anti-inflammatory drug, being injected subcut. in oil at 25 mg/kg. The total cellular contents of each pouch was determined using a Coulter Counter and different leukocyte subpopulations were assessed by immunofluorescent flow cytometry.

Cc1ccc(C(=O)Nc2ccc(S(=O)(=O)O)c3cc(S(=O)(=O)O)cc(S(=O)(=O)O)c23)cc1NC(=O)c1cccc(NC(=O)Nc2cccc(C(=O)Nc3cc(C(=O)Nc4ccc(S(=O)(=O)O)c5cc(S(=O)(=O)O)cc(S(=O)(=O)O)c45)ccc3C)c2)c1 [Suramin]
Anticoagulant Activity ([1]; Table 1): 0.1% | IC50 ([2]; Homo sapiens, Table 1, added at commencement of culture, read-out: 50% Inhibitory Concn, Angiogenesis): 50 µg/mL (≈ 38.5 µM) | Metastasis (% Control) [3]: 74 ± 8% | anti-angiogenic activity [4]: moderate anti-angiogenic and heparanase inhibitory activity | heparanase inhibitory activity [5]: moderate anti-angiogenic and heparanase inhibitory activity

Mannohexaose
Anticoagulant Activity ([1]; Table 3): 0.8% | IC50 Heparanase ([6]; Table 3): 3 µg/mL | IC50 bFGF (bFGF; Table 3): 11 µg/mL | IC50 aFGF (aFGF; Table 3): 5 µg/mL

Mannotriose
Anticoagulant Activity ([1]; Table 3): 0.3% | IC50 Heparanase ([6]; Table 3): 25 µg/mL

O=S(=O)(O)OC[C@H]1O[C@H](O[C@H]2[C@H](OS(=O)(=O)O)[C@@H](OS(=O)(=O)O)[C@@H](O[C@H]3[C@H](OS(=O)(=O)O)[C@@H](OS(=O)(=O)O)[C@@H](O[C@H]4[C@H](OS(=O)(=O)O)[C@@H](OS(=O)(=O)O)C(OS(=O)(=O)O)O[C@@H]4COS(=O)(=O)O)O[C@@H]3COS(=O)(=O)O)O[C@@H]2COS(=O)(=O)O)[C@H](OS(=O)(=O)O)[C@@H](OS(=O)(=O)O)[C@@H]1O[C@H]1O[C@H](COS(=O)(=O)O)[C@@H](O[C@H]2O[C@H](COS(=O)(=O)O)[C@@H](OS(=O)(=O)O)[C@H](OS(=O)(=O)O)[C@H]2OS(=O)(=O)O)[C@H](OS(=O)(=O)O)[C@H]1OS(=O)(=O)O (some centres unmarked) [Maltohexaose 20/20]
Anticoagulant Activity ([1]; Table 2): 3.3% | IC50 ([6]; read-out: IC50 Heparanase, Table 2): 1930 nM | IC50 (bFGF; read-out: IC50 bFGF, Table 2): 2080 nM | IC50 (aFGF; read-out: IC50 aFGF, Table 2): 7600 nM

Heparin
Anticoagulant Activity ([1]; Table 1): 100% | 50% Inhibitory Concn, Angiogenesis ([2]; Table 1, added at commencement of culture): > 2000 µg/mL | inhibition of human angiogenesis [2]: little anti-angiogenic activity | 50% Inhibitory Concn, Heparanase ([6]; Table 1): 1 µg/mL | Metastasis (% Control) [3]: 20 ± 3%

Galactotetraose
Anticoagulant Activity ([1]; Table 3): 1.0% | IC50 Heparanase ([6]; Table 3): 3.5 µg/mL | IC50 bFGF (bFGF; Table 3): 9 µg/mL

Maltotriose
Anticoagulant Activity ([1]; Table 2): 0.8% | IC50 Heparanase ([6]; Table 2): 100 µg/mL | heparanase inhibitory activity ([6]; in words): weakly inhibitory | IC50 bFGF (bFGF; Table 2): 145 µg/mL | IC50 aFGF (aFGF; Table 2): 58.7 µg/mL

Maltoheptaose
Anticoagulant Activity ([1]; Table 2): 3.9% | IC50 Heparanase ([6]; Table 2): 3 µg/mL | IC50 bFGF (bFGF; Table 2): 10 µg/mL | IC50 aFGF (aFGF; Table 2): 27 µg/mL

C[C@]12C=CC(=O)C=C1CC[C@@H]1[C@@H]2[C@@H](O)C[C@@]2(C)[C@H]1CC[C@]2(O)C(=O)CO [Prednisolone]
Leukocyte Infiltrate in Air Pouch (% Control) (air pouch inflammation; Expt 1): 56 ± 14% | Leukocyte Infiltrate in Air Pouch (% Control) (air pouch inflammation; Expt 2): 44 ± 3%

Mannotetraose
Anticoagulant Activity ([1]; Table 3): 0.4% | IC50 Heparanase ([6]; Table 3): 6 µg/mL | IC50 bFGF (bFGF; Table 3): 20 µg/mL | IC50 aFGF (aFGF; Table 3): 5 µg/mL

Maltopentaose
Anticoagulant Activity ([1]; Table 2): 3.2% | inhibition of human angiogenesis [2]: potent antimetastatic and anti-angiogenic activity | IC50 Heparanase ([6]; Table 2): 4 µg/mL | antimetastatic activity ([3]; in words): potent antimetastatic and anti-angiogenic activity | IC50 bFGF (bFGF; Table 2): 37.5 µg/mL | IC50 aFGF (aFGF; Table 2): 27 µg/mL
